# Test results as given in PubChem BioAssay AID463199 (Broad Institute, 2010).
# Activity calls are given as the source filed them.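 How the source made its calls: active means AC50, the dose giving half-maximal effect, exceeds a fixed cutoff for a compound that rescues yeast growth under heat; inactive means the rest, inconclusive results apart.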
# System: S. cerevisiae Burl-1 ts mutant growth, BacTiter-Glo, 38.5C 24 h
# Assay: growth induction of Burl-1 ts yeast mutant, dose response, counter-screen for SUMOylation pathway inhibitor project, whole organism, S. cerevisiae, luminescence (AID 463199)
row,Structure (SMILES),AC50
1,CCCCn1c(=O)[nH]c(=O)c2c1nc(COc1ccc(C#N)cc1)n2CCC,> 42 µM (inactive)
2,Cc1sc(NC(=O)CSC2=NCCS2)nc1-c1ccccc1,> 42 µM (inactive)
3,COc1ccc(CCNC(=O)CC2C(=O)NCCN2CC(C)(C)C)cc1 (stereo not given),> 42 µM (inactive)
4,CCC1(CC)NC(=O)N(CC(=O)N2N=C(c3ccc(Cl)cc3)CC2c2ccco2)C1=O (stereo not given),> 42 µM (inactive)
5,Nc1ccc(S(=O)(=O)NNC(=O)C(=O)NNc2ccccc2)cc1,> 42 µM (inactive)
6,CCN(CC)C1CCN(C(=O)c2cc(COc3ccc(-n4cncn4)cc3)on2)C1 (stereo not given),> 42 µM (inactive)
7,O=C(CSc1nnc(-c2ccccc2Cl)o1)Oc1ccc(Br)cc1,> 42 µM (inactive)
8,Cc1ccc(NC(=O)CCS(=O)(=O)c2ccc3nc(C)sc3c2)cc1,> 42 µM (inactive)
9,Cc1ccc(C(C[N+](=O)[O-])c2c(C)[nH]n(-c3ccccc3)c2=O)cc1 (stereo not given),39.7 µM
10,Cc1cccc(NS(=O)(=O)c2ccc3[nH]c(=O)cc(C(=O)O)c3c2)c1,> 21 µM (inactive)
11,COC(=O)c1c(C)n(Cc2ccc3c(c2)OCO3)c2ccc(O)cc12,> 42 µM (inactive)
12,Cc1cccc(N(Cc2ccccc2)C(=O)CSC(C)C(=O)Nc2cc(C)on2)c1 (stereo not given),> 42 µM (inactive)
13,CCCCCOC(=O)C1=C(C)N(C)C(=O)NC1c1cc(Br)c(O)c(OC)c1 (stereo not given),> 42 µM (inactive)
14,CC(=O)/C(N)=N/Nc1cccc(Cl)c1,> 42 µM (inactive)
15,Cc1ccccc1CSc1n[nH]c(NS(=O)(=O)c2ccccc2)n1,> 21 µM (inactive)
16,CCN(C(=O)Cn1c(=O)oc2ccccc21)c1cccc(C)c1,> 42 µM (inactive)
17,Cc1ccc(C)c(NC(=O)COC(=O)c2ccc3c(c2)OCO3)c1,> 42 µM (inactive)
18,CCOc1ccc(OCC)c(NC(=O)C2COc3ccccc3O2)c1 (stereo not given),> 42 µM (inactive)
19,CN(CC(=O)Nc1sccc1C#N)Cc1ccccc1,> 42 µM (inactive)
20,O=C(NNc1ccccc1)C(CCO)C(=O)NNc1ccccc1,> 42 µM (inactive)
21,CCC(c1nnnn1C1CCCC1)N1CCN(c2cccc(OC)c2)CC1 (stereo not given),> 21 µM (inactive)
22,CCC(Cc1ccccc1)NC(=O)C1CCN(c2nn3c(=O)cc(C)nc3s2)CC1 (stereo not given),> 42 µM (inactive)
23,COc1cc(S(=O)(=O)NC2CCCC2)c(OC)cc1C,> 42 µM (inactive)
24,CC(C)C(=O)Nc1ccc(-c2nc3cccnc3o2)cc1,> 42 µM (inactive)
25,Cc1ccc(NC(=O)CC2CS(=O)(=O)CC2CC(=O)Nc2ccc(C)c(C)c2)cc1C (stereo not given),19.2 µM

row,Structure (SMILES),AC50
1,CCN1CCN(C(=O)c2ccc3nc(-c4ccccc4)c(-c4ccccc4)nc3c2)CC1,> 42 µM (inactive)
2,Cc1ccc(NS(=O)(=O)c2ccc(NC(=O)C3CCCO3)cc2)cc1 (stereo not given),> 42 µM (inactive)
3,Cc1cc(C)cc(OC(=O)CS(=O)c2ccc(C(F)(F)F)cc2[N+](=O)[O-])c1 (stereo not given),> 42 µM (inactive)
4,COc1ccc(C2NC(=O)c3ccccc3O2)cc1 (stereo not given),> 42 µM (inactive)
5,COc1ccc2c(c1)[C@H]1[C@H](CO2)[C@H](c2ccccc2)[C@]2(C)C(=O)Nc3ccc(F)cc3C(=O)N12,> 42 µM (inactive)
6,Cc1ccc(N(CC(=O)NC2CCCC2)C(=O)CCC(=O)Nc2ccccn2)cc1C,> 42 µM (inactive)
7,Cc1ccc(C)n1-n1cnc2sc3c(c2c1=O)CCCCC3,> 42 µM (inactive)
8,COc1ccc(/C=C/C(=O)N2CCC(C(N)=O)CC2)cc1S(=O)(=O)N1CCOCC1,> 42 µM (inactive)
9,Cc1ccc(N2CN(CCc3ccccc3)CNC2=S)cc1,> 42 µM (inactive)
10,C/C(=N\NC(=S)Nc1ccccc1)C1Cc2ccccc2C(=O)O1 (stereo not given),> 42 µM (inactive)
11,CCN(C(=O)CCS(=O)(=O)c1ccc2c(c1)oc(=O)n2C)c1ccc(OC)cc1,> 42 µM (inactive)
12,COc1ccc(CN2CCN(C(=O)c3cc(-c4cccnc4)nc4ccc(Cl)cc34)CC2)c(OC)c1OC,> 42 µM (inactive)
13,CCN(CC)CC(=O)Nc1ccc(Oc2ccc(NC(=O)CN(CC)CC)cc2)cc1,> 42 µM (inactive)
14,COc1cccc(Nc2nc(C)nc3c2oc2ccccc23)c1,> 42 µM (inactive)
15,CC(C)CCn1c(C(C)O)nc2ccccc21 (stereo not given),> 42 µM (inactive)
16,Cc1cc(=O)oc(C)c1C(=O)Nc1ccc(Cl)cn1,> 42 µM (inactive)
17,CC1CCN(Cc2nc3c(c(=O)n(C)c(=O)n3C)n2CCc2ccccc2)CC1,> 42 µM (inactive)
18,CN(C(=O)COc1cc(=O)n(C)c2ccccc12)c1ccc(Cl)cc1,> 42 µM (inactive)
19,OC1(c2ccc(F)cc2)CC2CCC(C1)N2Cc1nnnn1C1CCCCC1 (stereo not given),> 42 µM (inactive)
20,Cn1cc(C(=O)N2CCCC(Nc3ccc(F)cc3)C2)c2ccccc21 (stereo not given),> 42 µM (inactive)
21,COc1ccc(-c2[nH]ncc2CNCCn2cccn2)c(F)c1,> 42 µM (inactive)
22,COc1ccc(N2C(=O)CSC23CCCCC3)cc1,> 42 µM (inactive)
23,Cc1ccc(C(C(=O)Nc2ccc3c(c2)OCO3)N(C)C(=O)Cc2c[nH]c3ccccc23)cc1 (stereo not given),> 42 µM (inactive)
24,CCC(C)[C@H](NC(=O)Nc1ccc(S(N)(=O)=O)cc1)C(=O)OC (stereo not given in full),> 42 µM (inactive)
25,CCCCC(=O)N/N=C(\C)CC(=O)Nc1cc(Cl)ccc1OC,> 42 µM (inactive)
